{"source": "patent US9562914B2", "about": "“Microfluidic device for real-time clinical monitoring and quantitative assessment of whole blood coagulation” (President and Fellows of Harvard College, priority 2013, dated 2017)", "test_system": "whole human blood", "assay": "whole blood clotting time in microfluidic coagulation device (infusion or pressure pump mode)", "type": "cell-based", "details": "microchannels coated with human collagen I at 100 μg/ml; device of FIG. 13A; uncoated PDMS 15-60 minutes", "method": "As discussed below, in the test configuration, 2-5 ml of human whole blood was pumped through an infusion or pressure pump followed by an inline pressure sensor that connected to ports 120a, 120b of the microfluidic device 100 via appropriate medical grade tubing (e.g., 1.6 mm ID). In infusion mode, clot formation leads to an increase in pressure, whereas in constant pressure mode, the flow rate drops with respect to time. […] The characteristic constants of these models indicate clotting times at two stages—when the clot formation is accelerating and when the clot has completely occluded the channel. […] Fluorescence microscopy of fibrinogen and platelets allow real-time monitoring of fibrin formation and platelet aggregation simultaneously.\nIn the testing conducted with the microfluidic device 100 of FIG. 1, fresh human blood stored in a 5 ml syringe (slip-tip Plastipak, BD, Franklin Lakes, N.J.) was pushed via syringe pump (PHD Ultra CP, Harvard Apparatus, Holliston, Mass.) through an inline, disposable pressure sensor (PREPS-N-000, PendoTECH, Princeton, N.J.) followed by the PDMS device within 15 minutes of blood draw. […] In the test setup, the imaging device 130 used was a fluorescence imaging configured Carl Zeiss Axio 3 Observer microscope (10×, NA 0.3 objective), but other imaging devices may be readily used in accord with the present concepts. […]"}
{"substance": "human collagen I: human collagen I coated on the microchannels at a concentration of 100 μg/ml", "values": [{"measurement": "clotting time with collagen-coated microchannels", "value": "2 to 20", "unit": "min"}]}
